Results taken from US20050250137A1, “Molecular targets of cancer and aging” (priority 2002, published 2005).

How the values were obtained:
[1] = tested on: immortal (high passage) MDAH041 cells
[2] = tested on: immortal (high passage) MDAH041 cells; type: cell-based, human

Nc1ncn([C@H]2C[C@H](O)[C@@H](CO)O2)c(=O)n1 [5-aza-dC, 5-aza-2′-deoxycytidine]
2-5A synthetase induced by interferon OAS-1 expression [1]: 76.5 fold | 2-5 oligoadenylate synthetase 59 kDa OAS-L expression [1]: 40.0 fold | 041 5-aza Ave Signal Log [1]: 0.93 | (2-5′) oligoadenylate synthetase 59 kDa isoform OAS-L expression [1]: 40.0 fold | ALDH1A3 expression, 5A [1]: 2.8 fold | ALDH1A3 expression, IM vs 5-aza-dC, MA [1]: 2.8 fold | Adlican expression [1]: 17.6 fold | Aldehyde dehydrogenase 6 expression [1]: 4.1 fold | Aortic carboxypeptidase-like protein expression [1]: 12.3 fold | Associated molecule with the SH3 domain of STAM expression [1]: 7.6 fold | B2-bradykinin receptor, 3 expression [1]: 3.8 fold | B94 protein (tumor necrosis factor-alpha-inducible) expression [1]: 5.5 fold | BAC clone RG118D07 from 7q31 expression [1]: 5.5 fold | BST-2 (bone marrow stroma cell surface gene) expression [1]: 38.7 fold | Beta-thromboglobin-like protein expression [1]: 17.5 fold | Bone morphogenetic protein 2A expression [1]: 9.9 fold | CDNA DKFZp564H142 expression [1]: 9.5 fold | CIG5 (cytomegalovirus induces interferon-responsive) expression [1]: 66.6 fold | CIG5 vipirin expression [1]: 67.0 fold | CIG49 (cytomegalovirus induces interferon-responsive) expression [1]: 70.2 fold | CIG49 Interferon-induced protein with tetratricopepide repeats 4 expression [1]: 70.2 fold | CLTB expression, 5A [1]: 1.5 fold | CLTB expression, IM vs 5-aza-dC, MA [1]: 1.5 fold | CREG expression, 5A [1]: 2.2 fold | CREG expression, IM vs 5-aza-dC, MA [1]: 2.21 fold | CYP1B1 expression, 5A [1]: 8.2 fold | Carbonic anhydrase precursor (CA 12) expression [1]: 8.9 fold | Complement cytolysis inhibitor (CLI) expression [1]: 5.1 fold | Complement factor H expression [1]: 6.8 fold | Cysteine-rich heart protein expression [1]: 8.8 fold | Cytokine (GRO-beta, GRO-2) expression [1]: 29.6 fold | Cytokine (GRO-gamma) expression [1]: 56.8 fold | DUSP6 (dual specificity MAP kinase-phosphatase) expression [1]: 4.6 fold | Dickkopf-1 (hdkk-1) expression [1]: 14.4 fold | Dioxin-inducible cytochrome P450 (CYP1B1) expression [1]: 6.9 fold | Dual-specificity protein phosphatase expression [1]: 12.6 fold | FLJ14675 expression, 5A [1]: 3.8 fold | Factor H homologue expression [1]: 7.5 fold | Fibulin-2 expression [1]: 21.8 fold | Gamma-interferon-inducible protein (IP-30) expression [1]: 31.2 fold | Genes for histones H2B.1 and H2A expression [1]: 4.3 fold | Gravin expression [1]: 12.2 fold | HEM45 (interferon-stimulated gene, 20-kd; ISG20) expression [1]: 50.2 fold | HEM45, ISG-20 expression [1]: 50.2 fold | HLA class I locus C heavy chain expression [1]: 5.7 fold | HLA-F, gene for major histocompatibility complex class I F expression [1]: 29.4 fold | HPS5 expression, 5A [1]: 1.6 fold | HSPA2 expression, 5A [1]: 1.6 fold | HSPA2 expression, IM vs 5-aza-dC, MA [1]: 1.6 fold | HTATIP2 expression, 5A [1]: 5.6 fold | IGFBP3 expression, IM vs 5-aza-dC, MA [1]: 2.48 fold | IGFBP4 expression, IM vs 5-aza-dC, MA [1]: 3.72 fold | Inhibitor of apoptosis protein 1 expression [1]: 13.1 fold | Insulin-like growth factor binding protein 6 expression [1]: 5.9 fold | Insulin-like growth factor binding protein-4 expression [1]: 3.8 fold | Integral membrane glycoprotein LIG-1 (TM4SF1) expression [1]: 5.2 fold | Interferon regulatory factor 7B expression [1]: 17.5 fold | Interferon, alpha-inducible protein 27 expression [1]: 482.0 fold | Interferon-induced p78, Mx1 expression [1]: 202 fold | Interferon-induced p78, MxB expression [1]: 122.1 fold | Interferon-inducible 56 Kd protein expression [1]: 36.6 fold | Interferon-inducible 56 kDa protein expression [1]: 36.6 fold | Interferon-inducible membrane protein 9-27 (IFITM1) expression [1]: 8.8 fold | Interferon-inducible peptide (6-16) expression [1]: 10.2 fold | Interferon-inducible protein 9-27 expression [1]: 8.8 fold | Interferon-inducible protein (Absent in Melanoma 2, AIM2) expression [1]: 21.6 fold | Interferon-inducible protein AIM2 (absent in melanoma) expression [1]: 21.6 fold | Interferon-inducible protein Mx1 expression [1]: 42 fold | Interferon-inducible protein p78, Mx2 expression [1]: 202 fold | Interferon-stimulated gene p27 mRNA expression [1]: 482.0 fold | Interleukin 8 expression [1]: 92.7 fold | K12 protein precursor (SECTM1) expression [1]: 19.6 fold | KIAA0744 protein expression [1]: 8.6 fold | KIAA 1077 protein Sulfatase FP expression [1]: 10.9 fold | KIAA1750 expression, 5A [1]: 2.9 fold | KIAA1750 expression, IM vs 5-aza-dC, MA [1]: 2.88 fold | Keratin 18 expression [1]: 13.5 fold | Ly-6-related protein (9804) gene expression [1]: 34.1 fold | MAP1LC3B expression, 5A [1]: 1.7 fold | Major group rhinovirus receptor (HRV) ICAM expression [1]: 28.9 fold | Major group rhinovirus receptor (HRV) expression [1]: 28.9 fold | Melanoma growth stimulatory activity (MGSA) (GRO-1) expression [1]: 64.6 fold | Microphage migration inhibitory factor (MIF) expression [1]: 42.1 fold | Microtubular protein 44 expression [1]: 17.8 fold | Microtubular protein p44 (IFI44) expression [1]: 17.8 fold | NK4 protein (natural killer cell transcript 4) expression [1]: 20.2 fold | Neurite outgrowth-promoting protein expression [1]: 7.1 fold | Neuromedin B Precursor expression [1]: 5.6 fold | Nk4 protein (natural killer cell transcript 4) expression [1]: 20.2 fold | OPTN expression, 5A [1]: 2.6 fold | OPTN expression, IM vs 5-aza-dC, MA [1]: 2.6 fold | Optineurin-like protein expression [1]: 4.2 fold | PCTAIRE 2 (pctaire protein kinase) expression [1]: 19.3 fold | Pig 7 expression [1]: 9.4 fold | Placental protein 5 (PP5) expression [1]: 29.3 fold | Placental tissue factor (two forms) expression [1]: 8.7 fold | Putative monocarboxylate transporter expression [1]: 6.3 fold | Rad (Ras associated with diabetes) expression [1]: 19.7 fold | Retinoic acid receptor responder 3 expression [1]: 7.1 fold | SERPINB2 expression, 5A [1]: 4.2 fold | SERPINB2 expression, IM vs 5-aza-dC, MA [1]: 4.2 fold | STAT1α expression, IM vs 5-aza-dC, MA [1]: 2.92 fold | Signal Transducer Activator of Transcription 1 STAT1 91 kDa expression [1]: 7.6 fold | Similar to gb: L 19779 HISTONE H2A.1 expression [1]: 10.3 fold | Skin collagenase MMP1 expression [1]: 4.8 fold | TESTIN 3 testis derived transcript (3 LIM domains) expression [1]: 8.1 fold | TNF-related apoptosis inducing ligand TRAIL expression [1]: 42.2 fold | TNF-related apoptosis inducing ligand, TRAIL expression [1]: 42.2 fold | TNFAIP2 expression, 5A [1]: 5.4 fold | TNFAIP2 expression, IM vs 5-aza-dC, MA [1]: 5.41 fold | Tat-interacting protein TIP30 expression [1]: 8.9 fold | Transcription Factor MAFF expression [1]: 8.1 fold | Transcription factor ISGF-3 (Stat 1) expression [1]: 7.6 fold | Transglutaminase (TGase) expression [1]: 144.6 fold | Tripartite motif-containing protein 14, TRIM14 expression [1]: 6.2 fold | Tumor antigen (L6) expression [1]: 17.5 fold | Tumor necrosis factor-inducible (TSG-6) expression [1]: 10.3 fold | Tyrosine protein kinase (CAK) gene expression [1]: 5.7 fold | Ubiquitin-conjugating enzyme E2L6 (UBE2L6) expression [1]: 5.9 fold | VAMP45 (vesicle-associated membrane protein 5) expression [1]: 9.1 fold | mRNA expressed in osteoblast expression [1]: 32.5 fold | uPA gene (urokinase-plasminogen activator gene) expression [1]: 4.4 fold | (2-5′) oligoadenylate synthetase E gene OAS1 expression, MDAH041HP vs. MDAH0411HP 5aza [2]: 1072↑ fold | ALDH1A3 expression, IM vs 5-aza-dC, QP [2]: 7.84 fold | CIG49 expression, MDAH041HP vs. MDAH0411HP 5aza [2]: 204↑ fold | CLTB expression, IM vs 5-aza-dC, QP [2]: 2.04 fold | CREG expression, IM vs 5-aza-dC, QP [2]: 2.88 fold | HSPA2 expression, IM vs 5-aza-dC, QP [2]: 2.74 fold | IGFBP3 expression, IM vs 5-aza-dC, QP [2]: 8.29 fold | IGFBP4 expression, IM vs 5-aza-dC, QP [2]: 7.00 fold | Interferon-induced 17-kDa/15-kDA expression, MDAH041HP vs. MDAH0411HP 5aza [2]: 443↑ fold | Interferon-inducible 56 kDa protein expression, MDAH041HP vs. MDAH0411HP 5aza [2]: 1807↑ fold | Interferon-inducible membrane protein 9-27 (IFITM1) expression, MDAH041HP vs. MDAH0411HP 5aza [2]: 278↑ fold | Interferon-inducible protein p78 expression, MDAH041HP vs. MDAH0411HP 5aza [2]: 480↑ fold | Interferon-regulatory factor 7B expression, MDAH041HP vs. MDAH0411HP 5aza [2]: 20031↑ fold | KIAA1750 expression, IM vs 5-aza-dC, QP [2]: 3.86 fold | MGSF expression, MDAH041HP vs. MDAH0411HP 5aza [2]: 800↑ fold | MIF expression, MDAH041HP vs. MDAH0411HP 5aza [2]: 130↑ fold | NDN expression, MDAH041HP vs. MDAH0411HP 5aza [2]: 10↑ fold | OPTN expression, IM vs 5-aza-dC, QP [2]: 9.21 fold | SERPINB2 expression, IM vs 5-aza-dC, QP [2]: 12.90 fold | STAT 1, 91 kD expression, MDAH041HP vs. MDAH0411HP 5aza [2]: 158↑ fold | STAT1α expression, IM vs 5-aza-dC, QP [2]: 119.85 fold | TNFAIP2 expression, IM vs 5-aza-dC, QP [2]: 6.10 fold | additional increase in hTERT RNA expression [2]: 17 fold
